[ ]: non-standard residue; d: D form. Tic = O=C(O)[C@@H]1Cc2ccccc2CN1; Abu = CC[C@H](N)C(=O)O

The test system of one experiment is antral follicles. Kind of experiment: envisaged case: patient with polycystic ovary syndrome treated with lanreotide acetate. Format: in vivo, women. The note with it: 120 mg/month, 4th month of treatment.
Experiment [1] deals with primordial follicles of ewe ovarian cortex. Kind of experiment: culture of ovarian cortex fragments of adult ewes for 10 days. The format is cell-based. The note with it: 10 days culture; for start of growth of the primordial follicles: vs control (FIG. 3). On the procedure: Ovaries of adult ewes are collected immediately after slaughter. The ovaries are placed in an organ transport medium without serum (X-vivo, Bio Whittaker, Walkersville, Md., USA) at 10° C. and transported to the laboratory. Approximately 1 h after removal, the cortex is isolated from the medulla then fractionated into slices of 2 mm thickness (1 cm^2, average weight of 212 mg) after rinsing in new X-vivo. The cortex fragments are cultured in an oven under 5% oxygen for 10 days in well plates in the presence of DMEM. The medium is changed every 2 days.
The procedure used is the same as for Example 1, except that the somatostatin is replaced with one of its agonist analogues, namely the synthetic peptide of formula c[Tic-Tyr-DTrp-Lys-Abu-Phe] (hereafter AG1 peptide).
The procedure used is the same as for Example 1, except that the somatostatin is replaced by one of its antagonist analogues, namely the synthetic peptide of formula Cpa-c(DCys-3-Pal-DTrp-NMeLys-Thr-Cys)-2-Nal-NH2 (hereafter ANT1 peptide).

As to `CC(C)[C@@H]1NC(=O)[C@H](CCCCN)NC(=O)[C@@H](Cc2c[nH]c3ccccc23)NC(=O)[C@H](Cc2ccc(O)cc2)NC(=O)[C@@H](NC(=O)[C@H](N)Cc2ccc3ccccc3c2)CSSC[C@@H](C(=O)N[C@H](C(N)=O)[C@@H](C)O)NC1=O` [lanreotide acetate], the “ultrasound of the ovaries: ovarian volume and number of antral follicles” value in the experiment with antral follicles is “reduction in ovarian volume and in the number of antral follicles”.

For the compound “Cpa-c(DCys-3-Pal-DTrp-NMeLys-Thr-Cys)-2-Nal-NH2 [ANT1 peptide]”, the “start of growth of the primordial follicles” value in experiment [1] (ANT1 peptide 10^−6M, FIG. 5) was “accentuates”.

Take cyclo([Tic]Y[dW]K[Abu]F) [AG1 peptide]: in experiment [1] (AG1 peptide 10^−9M, FIG. 4), the “number of primary follicles” value is “absence of increase”, the “number of primordial follicles” value was “maintenance over time” and the “start of growth of the primordial follicles” value is given as “very significantly inhibits”.

Source of the values: patent US20100152102A1, “USE OF SO[…] ONE OF ITS ANALOGUES FOR PREPARING A […] TO REGULATE THE OVARIAN […] IN NON-[…]” (Preglem S.A., priority 2003, published 2010).
